# Measurements: ChEMBL document CHEMBL3886170, “Pyrrolo[3,2-c]pyridine tropomyosin-related kinase inhibitors” (2015)
# Target: High affinity nerve growth factor receptor (Homo sapiens, UniProt P04629)
# Assay: HTRF Assay: Isolated TRK Enzyme assays use the HTRF KinEASE-TK kit (Cisbio Cat#62TK0PEJ) with recombinant His-tagged cytoplasmic domains of each TRK receptor sourced from Invitrogen (see table below). […] A standard curve using the compound of Example 135 disclosed in WO2005/116035 of 150 uM is also prepared on each test plate. High percentage effect (HPE) is defined by 150 uM.
# High affinity nerve growth factor receptor, sequence (P04629 whole entry, the tested form may be a part): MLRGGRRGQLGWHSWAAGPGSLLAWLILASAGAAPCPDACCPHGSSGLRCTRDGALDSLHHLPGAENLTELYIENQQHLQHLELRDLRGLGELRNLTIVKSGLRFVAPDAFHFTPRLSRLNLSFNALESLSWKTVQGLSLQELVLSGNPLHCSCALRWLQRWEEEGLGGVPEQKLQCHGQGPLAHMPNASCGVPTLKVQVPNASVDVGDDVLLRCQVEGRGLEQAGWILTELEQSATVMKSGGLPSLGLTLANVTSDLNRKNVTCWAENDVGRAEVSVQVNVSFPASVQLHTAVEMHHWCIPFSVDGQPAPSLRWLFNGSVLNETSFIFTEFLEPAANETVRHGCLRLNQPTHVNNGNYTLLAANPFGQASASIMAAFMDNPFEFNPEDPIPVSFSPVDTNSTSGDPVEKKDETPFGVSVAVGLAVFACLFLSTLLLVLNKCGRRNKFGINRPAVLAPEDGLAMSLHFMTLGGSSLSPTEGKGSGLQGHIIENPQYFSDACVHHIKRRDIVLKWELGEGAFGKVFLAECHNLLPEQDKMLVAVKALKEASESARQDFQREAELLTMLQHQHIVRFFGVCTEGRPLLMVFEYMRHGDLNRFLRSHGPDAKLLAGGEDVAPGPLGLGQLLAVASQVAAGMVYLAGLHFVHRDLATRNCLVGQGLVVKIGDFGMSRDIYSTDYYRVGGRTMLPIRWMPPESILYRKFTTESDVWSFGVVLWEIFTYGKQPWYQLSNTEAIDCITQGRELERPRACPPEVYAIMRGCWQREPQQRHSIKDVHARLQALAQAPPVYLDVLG
row,IC50,SMILES
1,9.54 nM,CC(C)(CO)n1cc(C(=O)c2cncc(NC(=O)Cc3ccc(C#N)cc3)c2)c2cnccc21
2,6.53 nM,CC(C)(CO)n1cc(C(=O)c2cncc(NC(=O)Cc3ccc(Cl)cc3)c2)c2cncc(F)c21
3,12.4 nM,CC(C)(CO)n1cc(C(=O)c2cncc(NC(=O)Cn3cc(C4CC4)nn3)c2)c2cnccc21
4,79.3 nM,CC(C)(CO)n1cc(C(=O)c2cc(NC(=O)Cn3cc(C(F)(F)F)nn3)ccn2)c2cnccc21
